The results in this text go back to US10646488B2 (Araxes Pharma LLC, priority 2016, dated 2020).

This test deals with T1, KRAS G12C 1-169, his-tagged protein, GDP-loaded (Homo sapiens, UniProt P01116, G12C).
T1 construct: KRAS G12C 1-169, his-tagged protein, GDP-loaded
Put plainly: Covalent binding (% modification) to KRAS G12C by mass spectrometry. Particulars: covalent binding to KRAS G12C after a three minute incubation period. How it is done:
Test compounds were prepared as 10 mM stock solutions in DMSO (Fisher cat # BP-231-100). KRAS G12C 1-169, his-tagged protein, GDP-loaded was diluted to 2 μm in buffer (20 mM Hepes, 150 mM NaCl, 1 mM MgCl2). Compounds were tested for activity as follows:
Compounds were diluted to 50× final test concentration in DMSO in 96-well storage plates. Compound stock solutions were vortexed before use and observed carefully for any sign of precipitation. Dilutions were as follow: • For 100 μM final compound concentration, compounds were diluted to 5000 μM (5 μl 10 mM compound stock+5 μl DMSO and mixed well by pipetting. • For 30 μM final compound concentration, compounds were diluted to 1500 μM (3 μl 10 mM compound stock+17 μl DMSO) and mixed well by pipetting. • For 10 μM final compound concentration, compounds were diluted to 500 μM (2 μl 10 mM compound stock+38 μl DMSO) and mixed well by pipetting. 49 μl of the stock protein solution was added to each well of a 96-well PCR plate (Fisher cat #1423027). 1 μl of the diluted 50× compounds were added to appropriate wells in the PCR plate using 12-channel pipettor. Reactions were mixed carefully and thoroughly by pipetting up/down with a 200·1 multi-channel pipettor. […] 5 μl of 2% formic acid (Fisher cat # A117) in DI H2O was then added to each well followed by mixing with a pipette. The plate was then resealed with aluminum seal and stored on dry ice until analyzed as described below.
The above described assays were analyzed by mass spectrometry according to one of the following two procedures:
The MS instrument is set to positive polarity, 2 GHz resolution, and low mass (1700) mode and allowed to equilibrate for 30 minutes. The instrument is then calibrated, switched to acquisition mode and the appropriate method loaded.
After another 30 minute equilibration time, a blank batch (i.e., buffer) is run to ensure equipment is operating properly. The samples are thawed at 37° C. for 10 minutes, briefly centrifuged, and transfer to the bench top. Wells A1 and H12 are spiked with 1 uL 500 uM internal standard peptide, and the plates centrifuged at 2000×g for 5 minutes. The method is then run and masses of each individual well recorded.
The masses (for which integration data is desired) for each well are pasted into the platemap and exported from the analysis. Masses for the internal standards are exported as well. The data at 50 ppm is extracted for the +19 charge state, and identity of well A1 is assigned using the internal standard spike and integrated. Peak data is exported as a TOF list and the above steps are repeated individually, for the +20, 21, 22, 23, 24, and 25 charge states.
The masses and peak intensities of KRAS G12C protein species were measured using a Dionex RSLCnano system (Thermo Scientific) connected to a Q Exactive Plus mass spectrometer (Thermo Scientific).
[…] of sample was each loaded onto a Aeris™ 3.6 μm WIDEPORE C4 200 Å, LC Column 50×2.1 mm column maintained at 40° C. at a flow rate of 600 μl min^−1 with […] (0.1% formic acid in acetonitrile). The liquid chromatography conditions were 20% solvent B for 1 min, 20% to 60% solvent B for 1.5 min, 60% to 90% solvent for 0.5 min, 90% solvent B for 0.2 min, 90% to 20% solvent B for 0.2 min, and then equilibrated for 1.6 min before the following sample injection. The flow rate was maintained at 600 μl min^−1 throughout the sample analysis.
The mass spectrometer was operated in profile mode at a resolution of 17500, 5 microscans, using 50 msec max injection time and an AGC target of 1e6, and a full mass range from 800-1850 m/z was recorded. The HCD trapping gas was optimized for maximum sensitivity for intact proteins. The ionization method was electrospray ionization, which used a spray voltage of 4 kV, sheath gas flow set to 50 au, auxiliary gas flow set to 10 au and sweep gas flow set to 1 au. […]

SMILES strings stand for the structures.

On to `C=CC(=O)N1C[C@H](C)N(c2nc(N3CC(N(CC)CC)C3)nc3c(F)c(-c4c(C)ccc5[nH]ncc45)c(Cl)cc23)C[C@H]1C` (atropisomer, axis not shown) [Compound 151, 1-((2R,5S)-4-(6-chloro-2-(3-(diethylamino)azetidin-1-yl)-8-fluoro-7-((R)-5-methyl-1H-indazol-4-yl)quinazolin-4-yl)-2,5-dimethyl-piperazin-1-yl) prop-2-en-1-one], for which the Binding % entry was “+++ (+++ indicates binding activity greater than 90%)”.
Regarding `C=CC(=O)N1C[C@H](C)N(c2nc(N3CC(N(CC)CC)C3)nc3c(F)c(-c4c(C)ccc5[nH]ncc45)c(Cl)cc23)C[C@H]1C` (atropisomer, axis not shown) [Compound 152, 1-((2R,5S)-4-(6-chloro-2-(3-(diethylamino)azetidin-1-yl)-8-fluoro-7-((S)-5-methyl-1H-indazol-4-yl)quinazolin-4-yl)-2,5-dimethyl-piperazin-1-yl) prop-2-en-1-one], the Binding % result is “+ (+ indicates binding activity greater than 0% and up to 50%)”.
For the molecule `C=CC(=O)N1C[C@H](C)N(c2nc(N3CC(N(C)CC)C3)nc3c(F)c(-c4c(O)cccc4F)c(Cl)cc23)C[C@H]1C` (atropisomer, axis not shown) [Compound 154, 1-((2R,5S)-4-(6-chloro-2-(3-(ethyl(methyl)amino)azetidin-1-yl)-8-fluoro-7-((S)-2-fluoro-6-hydroxyphenyl)quinazolin-4-yl)-2,5-dimethyl-piperazin-1-yl) prop-2-en-1-one], the Binding % entry is listed as “+++ (+++ indicates binding activity greater than 90%)”.
With `C=CC(=O)N1C[C@H](C)N(c2nc(N3CC(N(C)CC)C3)nc3c(F)c(-c4c(O)cccc4F)c(Cl)cc23)C[C@H]1C` (atropisomer, axis not shown) [Compound 155, 1-((2R,5S)-4-(6-chloro-2-(3-(ethyl(methyl)amino)azetidin-1-yl)-8-fluoro-7-((R)-2-fluoro-6-hydroxyphenyl)quinazolin-4-yl)-2,5-dimethyl-piperazin-1-yl) prop-2-en-1-one], the Binding % result was “+ (+ indicates binding activity greater than 0% and up to 50%)”.
To `C=CC(=O)N1C[C@H](C)N(c2nc(OCCN(CC)CC)nc3c(F)c(-c4c(C)ccc5cn[nH]c45)c(Cl)cc23)C[C@H]1C` (atropisomer, axis not shown) [Compound 156, 1-((2R,5S)-4-(6-chloro-2-(2-(diethylamino)ethoxy)-8-fluoro-7-((R)-6-methyl-1H-indazol-7-yl)quinazolin-4-yl)-2,5-dimethyl-piperazin-1-yl) prop-2-en-1-one] belongs “+++ (+++ indicates binding activity greater than 90%)”.
Take `C=CC(=O)N1C[C@H](C)N(c2nc(N3CC(N(CC)CC)C3)nc3c(F)c(-c4c(O)cccc4F)c(Cl)cc23)C[C@H]1C` (atropisomer, axis not shown) [Compound 175, 1-((2R,5S)-4-(6-chloro-2-(3-(diethylamino)azetidin-1-yl)-8-fluoro-7-((S)-2-fluoro-6-hydroxyphenyl)quinazolin-4-yl)-2,5-dimethyl-piperazin-1-yl) prop-2-en-1-one]: the Binding % entry is given as “+++ (+++ indicates binding activity greater than 90%)”.
To `C=CC(=O)N1C[C@H](C)N(c2nc(N3CC(N(CC)CC)C3)nc3c(F)c(-c4c(O)cccc4F)c(Cl)cc23)C[C@H]1C` (atropisomer, axis not shown) [Compound 176, 1-((2R,5S)-4-(6-chloro-2-(3-(diethylamino)azetidin-1-yl)-8-fluoro-7-((R)-2-fluoro-6-hydroxyphenyl)quinazolin-4-yl)-2,5-dimethyl-piperazin-1-yl) prop-2-en-1-one] belongs “+ (+ indicates binding activity greater than 0% and up to 50%)”; to `[2H]C([2H])([2H])N(C1CN(c2nc(N3C[C@@H](C)N(C(=O)C=C)C[C@@H]3C)c3cc(Cl)c(-c4c(O)cccc4F)c(F)c3n2)C1)C([2H])([2H])[2H]` (atropisomer, axis not shown) [Compound 207, 1-((2R,5S)-4-(2-(3-(bis(triduetero-methyl)amino)azetidin-1-yl)-6-chloro-8-fluoro-7-((S)-2-fluoro-6-hydroxyphenyl)quinazolin-4-yl)-2,5-dimethyl-piperazin-1-yl) prop-2-en-1-one], “+++ (+++ indicates binding activity greater than 90%)”; to `[2H]C([2H])([2H])N(C1CN(c2nc(N3C[C@@H](C)N(C(=O)C=C)C[C@@H]3C)c3cc(Cl)c(-c4c(O)cccc4F)c(F)c3n2)C1)C([2H])([2H])[2H]` (atropisomer, axis not shown) [Compound 212, 1-((2R,5S)-4-(2-(3-(bis(triduetero-methyl)amino)azetidin-1-yl)-6-chloro-8-fluoro-7-((R)-2-fluoro-6-hydroxyphenyl)quinazolin-4-yl)-2,5-dimethyl-piperazin-1-yl) prop-2-en-1-one], “+ (+ indicates binding activity greater than 0% and up to 50%)”.
Consider `C=CC(=O)N1C[C@H](C)N(c2nc(N3CC(N(C)C)C3)nc3c(F)c(-c4cc(O)cc5ccccc45)c(Cl)cc23)C[C@H]1C` (atropisomer, axis not shown) [Compound 219, 1-((2R,5S)-4-(6-chloro-2-(3-(dimethylamino)azetidin-1-yl)-8-fluoro-7-((S)-3-hydroxynaphthalen-1-yl)quinazolin-4-yl)-2,5-dimethyl-piperazin-1-yl) prop-2-en-1-one], for which the Binding % result is reported as “+++ (+++ indicates binding activity greater than 90%)”.
To `C=CC(=O)N1C[C@H](C)N(c2nc(N3CC(N(C)C)C3)nc3c(F)c(-c4cc(O)cc5ccccc45)c(Cl)cc23)C[C@H]1C` (atropisomer, axis not shown) [Compound 220, 1-((2R,5S)-4-(6-chloro-2-(3-(dimethylamino)azetidin-1-yl)-8-fluoro-7-((R)-3-hydroxynaphthalen-1-yl)quinazolin-4-yl)-2,5-dimethyl-piperazin-1-yl) prop-2-en-1-one] belongs “+ (+ indicates binding activity greater than 0% and up to 50%)”; to `[2H]C([2H])([2H])N(C1CN(c2nc(N3C[C@@H](C)N(C(=O)C=C)C[C@@H]3C)c3cc(Cl)c(-c4c(C)ccc5[nH]ncc45)c(F)c3n2)C1)C([2H])([2H])[2H]` (atropisomer, axis not shown) [Compound 226, 1-((2R,5S)-4-(6-chloro-2-(3-(bis(triduetero-methyl)amino)azetidin-1-yl)-8-fluoro-7-((R)-5-methyl-1H-indazol-4-yl)quinazolin-4-yl)-2,5-dimethyl-piperazin-1-yl) prop-2-en-1-one], “+++ (+++ indicates binding activity greater than 90%)”; to `[2H]C([2H])([2H])N(C1CN(c2nc(N3C[C@@H](C)N(C(=O)C=C)C[C@@H]3C)c3cc(Cl)c(-c4c(C)ccc5[nH]ncc45)c(F)c3n2)C1)C([2H])([2H])[2H]` (atropisomer, axis not shown) [Compound 227, 1-((2R,5S)-4-(6-chloro-2-(3-(bis(triduetero-methyl)amino)azetidin-1-yl)-8-fluoro-7-((S)-5-methyl-1H-indazol-4-yl)quinazolin-4-yl)-2,5-dimethyl-piperazin-1-yl) prop-2-en-1-one], “+ (+ indicates binding activity greater than 0% and up to 50%)”.
On to `[2H]C([2H])([2H])N(C1CN(c2nc(N3C[C@@H](C)N(C(=O)C=C)C[C@@H]3C)c3cc(Cl)c(-c4cc(O)cc5ccccc45)c(F)c3n2)C1)C([2H])([2H])[2H]` (atropisomer, axis not shown) [Compound 228], for which the Binding % result is “+++ (+++ indicates binding activity greater than 90%)”.
